The values below come from ChEMBL document CHEMBL1158605, “Synthesis of novel beta-lactam fused spiroisoxazolidine chromanones and tetralones as potent antimicrobial agent for human and plant pathogens” (2010).

One assay relates to Proteus mirabilis. Description: Antibacterial activity against Proteus mirabilis. In kind it is functional.
The next assay deals with Fusarium oxysporum. Description: Antifungal activity against Fusarium oxysporum. Type of assay: functional.
For a further assay, the system named is Staphylococcus aureus. Description: Antibacterial activity against Staphylococcus aureus. In kind it is functional.
The next assay concerns Macrophomina phaseolina. Description: Antifungal activity against Macrophomina phaseolina. Type of assay: functional.
A further assay relates to Salmonella enterica. Description: Antibacterial activity against Salmonella typhi. In kind it is functional, Salmonella enterica subsp. enterica serovar Typhi.
The test system of a further assay is Proteus vulgaris. Description: Antibacterial activity against Proteus vulgaris. In kind it is functional.

Converted amounts (≈) assume the structure as drawn.

With `COc1ccc(N2C(=O)[C@H]3[C@@H]2[C@H]2[C@H](c4ccc(Br)cc4)[C@]4(COc5ccccc5C4=O)ON2[C@@H]3C[Se]c2ccccc2)cc1`, the MIC in the assay with Proteus mirabilis was 30 µg/mL (≈ 41.9 µM); in the assay on Fusarium oxysporum, 150 µg/mL (≈ 209 µM); in the assay on Staphylococcus aureus it was 30 µg/mL (≈ 41.9 µM); in the assay with Macrophomina phaseolina, 75 µg/mL (≈ 105 µM); in the assay with Salmonella enterica, 45 µg/mL (≈ 62.8 µM); in the assay with Proteus vulgaris, 25 µg/mL (≈ 34.9 µM).

Regarding `COc1ccc([C@H]2[C@@H]3[C@H]4[C@H](C(=O)N4c4ccc(OC)cc4)[C@@H](C[Se]c4ccccc4)N3O[C@@]23CCc2ccccc2C3=O)cc1`, the MIC against Proteus mirabilis was found to be 50 µg/mL (≈ 75.1 µM); in the assay on Fusarium oxysporum, 125 µg/mL (≈ 188 µM); with Staphylococcus aureus it was 45 µg/mL (≈ 67.6 µM); in the assay with Macrophomina phaseolina, 50 µg/mL (≈ 75.1 µM); against Salmonella enterica it was 40 µg/mL (≈ 60.1 µM); with Proteus vulgaris it was 35 µg/mL (≈ 52.6 µM).

With `COc1ccc(N2C(=O)[C@H]3[C@@H]2[C@H]2[C@H](c4ccc(C)cc4)[C@]4(COc5ccccc5C4=O)ON2[C@@H]3C[Se]c2ccccc2)cc1`, the MIC in the assay on Proteus mirabilis worked out at 65 µg/mL (≈ 99.8 µM); in the assay with Fusarium oxysporum it was 150 µg/mL (≈ 230 µM); with Staphylococcus aureus, 45 µg/mL (≈ 69.1 µM); with Macrophomina phaseolina, 75 µg/mL (≈ 115 µM); in the assay on Salmonella enterica, 35 µg/mL (≈ 53.7 µM); against Proteus vulgaris it was 40 µg/mL (≈ 61.4 µM).

`COc1ccc(N2C(=O)[C@H]3[C@@H]2[C@H]2[C@H](c4ccc(Cl)cc4)[C@]4(COc5ccccc5C4=O)ON2[C@@H]3C[Se]c2ccccc2)cc1`: the MIC against Proteus mirabilis was determined as 20 µg/mL (≈ 29.8 µM); against Fusarium oxysporum, 75 µg/mL (≈ 112 µM); against Staphylococcus aureus, 20 µg/mL (≈ 29.8 µM); with Macrophomina phaseolina it was 50 µg/mL (≈ 74.4 µM); in the assay on Salmonella enterica, 25 µg/mL (≈ 37.2 µM); in the assay with Proteus vulgaris, 10 µg/mL (≈ 14.9 µM).

As for `COc1ccc(N2C(=O)[C@H]3[C@@H]2[C@H]2[C@H](c4ccccc4)[C@]4(CCc5ccccc5C4=O)ON2[C@@H]3C[Se]c2ccccc2)cc1`, the MIC in the assay with Proteus mirabilis came out at 55 µg/mL (≈ 86.5 µM); in the assay with Fusarium oxysporum, 125 µg/mL (≈ 197 µM); in the assay with Staphylococcus aureus it was 25 µg/mL (≈ 39.3 µM); with Macrophomina phaseolina, 75 µg/mL (≈ 118 µM); against Salmonella enterica, 45 µg/mL (≈ 70.8 µM); against Proteus vulgaris, 40 µg/mL (≈ 62.9 µM).

For the compound `COC(=O)Nc1nc2ccccc2[nH]1` [CARBENDAZIM], the MIC in the assay on Fusarium oxysporum amounted to 18 µg/mL (≈ 94.1 µM); in the assay with Macrophomina phaseolina it was 15 µg/mL (≈ 78.5 µM).

Regarding `COc1ccc(N2C(=O)[C@H]3[C@@H]2[C@H]2[C@H](c4ccc(C)cc4)[C@]4(CCc5ccccc5C4=O)ON2[C@@H]3C[Se]c2ccccc2)cc1`, the MIC against Proteus mirabilis stood at 50 µg/mL (≈ 77 µM); against Fusarium oxysporum, 75 µg/mL (≈ 115 µM); against Staphylococcus aureus, 40 µg/mL (≈ 61.6 µM); against Macrophomina phaseolina, 25 µg/mL (≈ 38.5 µM); against Salmonella enterica, 35 µg/mL (≈ 53.9 µM); against Proteus vulgaris, 45 µg/mL (≈ 69.3 µM).

In the case of `COc1ccc(N2C(=O)[C@H]3[C@@H]2[C@H]2[C@H](c4ccc(Cl)cc4)[C@]4(CCc5ccccc5C4=O)ON2[C@@H]3C[Se]c2ccccc2)cc1`, the MIC came to 40 µg/mL (≈ 59.7 µM) in the assay with Proteus mirabilis; 50 µg/mL (≈ 74.6 µM) against Fusarium oxysporum; 35 µg/mL (≈ 52.2 µM) against Staphylococcus aureus; 25 µg/mL (≈ 37.3 µM) against Macrophomina phaseolina; 30 µg/mL (≈ 44.8 µM) against Salmonella enterica; 45 µg/mL (≈ 67.2 µM) in the assay on Proteus vulgaris.

For `CN(C)[C@@H]1C(O)=C(C(N)=O)C(=O)[C@@]2(O)C(O)=C3C(=O)c4c(O)cccc4[C@@](C)(O)[C@H]3C[C@@H]12` [TETRACYCLINE], the MIC was found to be 20 µg/mL (≈ 45 µM) in the assay on Proteus mirabilis, 10 µg/mL (≈ 22.5 µM) in the assay on Staphylococcus aureus, 15 µg/mL (≈ 33.8 µM) with Salmonella enterica and 15 µg/mL (≈ 33.8 µM) against Proteus vulgaris.

Turning to `COc1ccc(N2C(=O)[C@H]3[C@@H]2[C@H]2[C@H](c4ccc(Br)cc4)[C@]4(CCc5ccccc5C4=O)ON2[C@@H]3C[Se]c2ccccc2)cc1`, the MIC was determined as 50 µg/mL (≈ 70 µM) against Proteus mirabilis; 150 µg/mL (≈ 210 µM) with Fusarium oxysporum; 45 µg/mL (≈ 63 µM) against Staphylococcus aureus; 75 µg/mL (≈ 105 µM) against Macrophomina phaseolina; 35 µg/mL (≈ 49 µM) in the assay with Salmonella enterica; 35 µg/mL (≈ 49 µM) against Proteus vulgaris.

On to `COc1ccc([C@H]2[C@@H]3[C@H]4[C@H](C(=O)N4c4ccc(OC)cc4)[C@@H](C[Se]c4ccccc4)N3O[C@@]23COc2ccccc2C3=O)cc1`, for which the MIC against Proteus mirabilis amounted to 25 µg/mL (≈ 37.4 µM); in the assay with Fusarium oxysporum, 125 µg/mL (≈ 187 µM); in the assay on Staphylococcus aureus it was 40 µg/mL (≈ 59.9 µM); in the assay with Macrophomina phaseolina, 75 µg/mL (≈ 112 µM); with Salmonella enterica it was 45 µg/mL (≈ 67.4 µM); with Proteus vulgaris, 15 µg/mL (≈ 22.5 µM).

For `COc1ccc(N2C(=O)[C@H]3[C@@H]2[C@H]2[C@H](c4ccccc4)[C@]4(COc5ccccc5C4=O)ON2[C@@H]3C[Se]c2ccccc2)cc1`, the MIC against Proteus mirabilis was determined as 55 µg/mL (≈ 86.3 µM); with Fusarium oxysporum, 125 µg/mL (≈ 196 µM); against Staphylococcus aureus, 45 µg/mL (≈ 70.6 µM); in the assay on Macrophomina phaseolina, 50 µg/mL (≈ 78.4 µM); in the assay with Salmonella enterica, 20 µg/mL (≈ 31.4 µM); in the assay with Proteus vulgaris, 30 µg/mL (≈ 47.1 µM).

As usually defined, the MIC is the lowest concentration found to suppress growth. High values mean weaker potency, low ones greater potency.
